Key:
Histamine H3 receptor [1] = target: T1, Histamine H3 receptor (Homo sapiens, UniProt Q9Y5N1); assay: Binding affinity to human histamine H3 receptor
Histamine H3 receptor [2] = target: T1, Histamine H3 receptor; assay: Displacement of [3H](R)-alpha-methylhistamine from human histamine H3 receptor at 10 uM
[3] = target: Histamine H1 receptor (Homo sapiens) (UniProt P35367); assay: Displacement of [3H]pyrilamine from human histamine H1 receptor at 10 uM
[4] = target: Histamine H2 receptor (Homo sapiens) (UniProt P25021); assay: Displacement of [3H]tiotidine from human histamine H2 receptor at 10 uM
Sequence of Histamine H2 receptor (Homo sapiens) (P25021 whole entry): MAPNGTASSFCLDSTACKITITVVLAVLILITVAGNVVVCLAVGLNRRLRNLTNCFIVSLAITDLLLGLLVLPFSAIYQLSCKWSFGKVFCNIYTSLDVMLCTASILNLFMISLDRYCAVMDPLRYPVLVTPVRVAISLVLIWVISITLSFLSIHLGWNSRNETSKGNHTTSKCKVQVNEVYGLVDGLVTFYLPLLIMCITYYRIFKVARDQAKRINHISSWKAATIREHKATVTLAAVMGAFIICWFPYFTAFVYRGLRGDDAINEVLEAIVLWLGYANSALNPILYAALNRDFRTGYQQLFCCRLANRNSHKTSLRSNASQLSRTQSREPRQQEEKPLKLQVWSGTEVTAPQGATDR

Histamine H3 receptor [5] = target: T1, Histamine H3 receptor; assay: Inverse agonist activity at human histamine H3 receptor by GTP gammaS assay; assay type: functional
Histamine H3 receptor [6] = target: Histamine H3 receptor (Rattus norvegicus, UniProt Q9QYN8); assay: Binding affinity to rat histamine H3 receptor
Sequence of Histamine H3 receptor (Rattus norvegicus, UniProt Q9QYN8) (Q9QYN8 whole entry): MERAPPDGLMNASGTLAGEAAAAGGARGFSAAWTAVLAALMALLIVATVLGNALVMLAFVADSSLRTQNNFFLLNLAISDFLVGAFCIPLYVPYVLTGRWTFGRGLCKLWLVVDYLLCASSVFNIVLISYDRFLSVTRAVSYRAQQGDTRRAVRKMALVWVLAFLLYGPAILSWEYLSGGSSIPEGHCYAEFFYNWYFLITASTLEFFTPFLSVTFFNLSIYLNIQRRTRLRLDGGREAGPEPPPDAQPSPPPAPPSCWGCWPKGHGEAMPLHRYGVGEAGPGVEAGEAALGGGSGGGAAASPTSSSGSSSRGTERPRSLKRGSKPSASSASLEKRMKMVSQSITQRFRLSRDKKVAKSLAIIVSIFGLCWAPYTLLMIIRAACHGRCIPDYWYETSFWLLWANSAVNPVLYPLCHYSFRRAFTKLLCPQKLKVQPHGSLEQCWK

T1 sequence (Q9Y5N1 whole entry): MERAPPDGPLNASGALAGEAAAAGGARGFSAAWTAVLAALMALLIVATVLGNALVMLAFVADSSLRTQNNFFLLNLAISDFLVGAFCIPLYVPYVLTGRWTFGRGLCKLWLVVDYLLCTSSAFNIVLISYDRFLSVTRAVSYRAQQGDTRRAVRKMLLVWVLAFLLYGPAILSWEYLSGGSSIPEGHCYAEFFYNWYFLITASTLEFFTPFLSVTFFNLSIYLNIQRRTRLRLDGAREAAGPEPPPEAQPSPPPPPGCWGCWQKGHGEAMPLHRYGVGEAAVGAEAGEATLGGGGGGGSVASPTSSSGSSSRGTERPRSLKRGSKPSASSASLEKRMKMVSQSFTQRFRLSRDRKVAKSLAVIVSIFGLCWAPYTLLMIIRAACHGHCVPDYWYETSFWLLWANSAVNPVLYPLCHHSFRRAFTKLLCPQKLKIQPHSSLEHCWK
Sequence of Histamine H1 receptor (Homo sapiens) (P35367 whole entry): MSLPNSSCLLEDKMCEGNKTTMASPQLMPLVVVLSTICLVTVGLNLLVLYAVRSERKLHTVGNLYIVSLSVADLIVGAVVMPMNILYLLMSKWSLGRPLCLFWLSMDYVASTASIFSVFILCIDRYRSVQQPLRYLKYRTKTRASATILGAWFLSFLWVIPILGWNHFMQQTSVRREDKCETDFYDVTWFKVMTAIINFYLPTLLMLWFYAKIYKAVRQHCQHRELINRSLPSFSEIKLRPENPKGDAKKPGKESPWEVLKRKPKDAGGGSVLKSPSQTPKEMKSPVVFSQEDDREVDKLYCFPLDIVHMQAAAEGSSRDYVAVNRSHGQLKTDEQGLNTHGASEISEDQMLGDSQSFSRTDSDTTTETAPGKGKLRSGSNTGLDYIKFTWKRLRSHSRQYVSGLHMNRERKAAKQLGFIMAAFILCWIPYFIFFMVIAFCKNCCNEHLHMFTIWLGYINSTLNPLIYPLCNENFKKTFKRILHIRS

## CN(C)C(=O)c1cc(OCCCN2CCOCC2)ccc1OCc1ccccc1Cl
Histamine H3 receptor [1]
  Ki: 1100 nM

## COc1ccccc1COc1ccc(OCCCN2CCOCC2)cc1C(=O)N(C)C
Histamine H3 receptor [1]
  Ki: 1390 nM
Histamine H3 receptor [2]
  Activity: 73.4%

## CN(C)Cc1cc(OCCCCl)ccc1Nc1ncnc2ccccc12
Histamine H3 receptor [2]
  Activity: 49%

## CN(C)Cc1cc(OCCCN2CCCCC2)ccc1OCc1ccccc1Cl
Histamine H3 receptor [1]
  Ki: 2.4 nM

## CN(C)C(=O)c1cc(OCCC2CCCN2C)ccc1OCc1ccccc1Cl (stereo unspecified)
Histamine H3 receptor [1]
  Ki: 1810 nM

## CN(C)C(=O)c1cc(OCc2ccc(F)cc2)ccc1OCc1ccccc1Cl
Histamine H3 receptor [2]
  Activity: 33%

## CN(C)CCCOc1ccc(Nc2ncnc3ccccc23)c(CN(C)C)c1
Histamine H3 receptor [1]
  Ki: 18 nM
[3]
  Activity: -15%
[4]
  Activity: -2%

## COc1ccccc1COc1ccc(OCCCN2CCCCC2)cc1C(=O)N(C)C
Histamine H3 receptor [1]
  Ki: 12 nM

## COC(=O)c1ccc(COc2ccc(Nc3ncnc4ccccc34)c(CN(C)C)c2)cc1
Histamine H3 receptor [2]
  Activity: 31%

## CCOC(=O)CCCOc1ccc(Nc2ncnc3ccccc23)c(CN(C)C)c1
Histamine H3 receptor [2]
  Activity: 28%

## CN(C)Cc1cc(O)ccc1Nc1ncnc2ccccc12
Histamine H3 receptor [2]
  Activity: 11.6%

## CN(C)CCCOc1ccc(Oc2ncnc3ccccc23)c(C(=O)N(C)C)c1
Histamine H3 receptor [1]
  Ki: 1020 nM

## CC(C)N1CCC(Oc2ccc(OCc3ccccc3Cl)c(CN(C)C)c2)C1 (stereo unspecified)
Histamine H3 receptor [1]
  Ki: 88 nM

## CN(C)CCCOc1ccc(OCc2ccccc2Cl)c(CN(C)C)c1
Histamine H3 receptor [1]
  Ki: 135 nM

## CN(C)Cc1cc(OCC2CCCN(C)C2)ccc1OCc1ccccc1Cl (stereo unspecified)
Histamine H3 receptor [1]
  Ki: 150 nM

## CN(C)C(=O)c1cc(OC2CCCCO2)ccc1OCc1ccccc1Cl (stereo unspecified)
Histamine H3 receptor [2]
  Activity: 17%

## CN(C)C(=O)c1cc(OCCCN2CCCCC2)ccc1OCc1ccccc1Cl
Histamine H3 receptor [1]
  Ki: 47 nM
[3]
  Activity: 8%

## CN(C)Cc1cc(OCCCN2CCCCC2)ccc1Nc1ncnc2ccccc12
Histamine H3 receptor [1]
  Ki: 0.3 nM
Histamine H3 receptor [5]
  EC50: 0.2 nM
Histamine H3 receptor [6]
  Ki: 9.8 nM
[3]
  Activity: -2.5%
[4]
  Activity: 2.4%
